Assays:
[1] = tested on: female rats during pregnancy; experiment: Teratogenic effects in the rat; type: in vivo; conditions: dose of 6 mg/kg/day, subcutaneously, day 8 to 14 of pregnancy
Description: Teratogenic effects in the rat.
The compounds were administrated subcutaneously to female rats during pregnancy, i.e., day 8 to 14 of pregnancy. The rats were caesarean sectioned and necropsied on day 20 after fertilisation. The foetuses were examined for external and internal abnormalities.

[2] = tested on: acute experimental autoimmune encephalomyelitis (aEAE); experiment: Acute experimental autoimmune encephalomyelitis (aEAE) inhibition; type: in vivo; conditions: at ≥5 mg/kg, mice, treatment control
[3] = tested on: beagle dogs; experiment: Beagle Pain Syndrome (BPS); type: in vivo; conditions: different breeds of beagle dogs
Protocol: The disease is reflected by clinical and laboratory manifestations justifying BPS as a model for the flu-like syndrome induced by roquinimex in man.
Beagle Pain Syndrome (BPS).
The compounds were administrated intravenously to beagle dogs. The dosage was given for five consecutive days. The dogs were evaluated for clinical and laboratory signs of the pain syndrome, e.g., fever, increased erythrocyte sedimentation rate (ESR), alkaline phosphate (AP), induction of acute phase proteins and vasculitis

[4] = tested on: female rats during pregnancy; conditions: no dose given, background statement; cited from earlier work
[5] = tested on: man; conditions: e.g. a flu-like syndrome; cited from earlier work

Row | SMILES | Teratogenic effects in the rat [1] | inhibition of acute experimental autoimmune encephalomyelitis (aEAE) [2] | induction of the Beagle Pain Syndrome (BPS) [3] | teratogenic in the rat [4] | side effects in man [5]
1 | CCN(C(=O)c1c(O)c2c(SC)cccc2n(C)c1=O)c1ccccc1 [Compound A, N-ethyl-N-phenyl-1,2-dihydro-4-hydroxy-5-methylthio-1-methyl-2-oxo-quinoline-3-carboxamide] | non-teratogenic | – | – | – | –
2 | CSc1cccc2c1c(O)c(C(=O)N(C)c1ccc(F)cc1F)c(=O)n2C [Compound B, N-methyl-N-(2,4-difluoro-phenyl)-1,2-dihydro-4-hydroxy-5-methylthio-1-methyl-2-oxo-quinoline-3-carboxamide] | non-teratogenic | – | – | – | –
3 | CSc1cccc2c1c(O)c(C(=O)N(C)c1ccccc1)c(=O)n2C [N-methyl-N-phenyl-1,2-dihydro-4-hydroxy-5-methylthio-1-methyl-2-oxo-quinoline-3-carboxamide] | teratogenic | – | – | – | –
4 | CN(C(=O)c1c(O)c2ccccc2n(C)c1=O)c1ccccc1 [Roquinimex, roquinimex] | – | more than 50% | induce the Beagle Pain Syndrome (BPS) | teratogenic | induces dose-limiting side effects

From patent publication EP1097139B1, “QUINOLINE DERIVATIVES” (Active Biotech AB, priority 1998, dated 2000)
